Results published in PubChem BioAssay AID1919013 (Molecular Pharmacology Branch, DTP, NCI, 2023).

System: LG0703-F498-PDC complex spheroid growth
Experiment: Anticancer human tumor LG0703-F498-PDC patient-derived lung adenocarcinoma cell line growth inhibition [AhR]
Conditions: for IC50: curve of first compound; for viability, T/C: stronger effect = lower value
Method in brief: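 Agents were dosed in half-log steps down from roughly clinical Cmax, or from 10 microM where Cmax was unknown, alone and with AhR antagonists. Read-out: percent test/control growth of tumor spheroids containing HUVEC and MSC stromal cells.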

[1] = second compound 0.1 µM, first compound 0.0316 µM
[2] = second compound 0.1 µM, first compound 0.1 µM
[3] = second compound 0.1 µM, first compound 0.316 µM
[4] = second compound 0.1 µM, first compound 1 µM
[5] = second compound 0.1 µM, first compound 3.16 µM
[6] = second compound 0.1 µM, first compound 10 µM
[7] = second compound 0.316 µM, first compound 0.0316 µM
[8] = second compound 0.316 µM, first compound 0.1 µM
[9] = second compound 0.316 µM, first compound 0.316 µM
[10] = second compound 0.316 µM, first compound 1 µM
[11] = second compound 0.316 µM, first compound 3.16 µM
[12] = second compound 0.316 µM, first compound 10 µM
[13] = second compound 1 µM, first compound 0.0316 µM
[14] = second compound 1 µM, first compound 0.1 µM
[15] = second compound 1 µM, first compound 0.316 µM
[16] = second compound 1 µM, first compound 1 µM
[17] = second compound 1 µM, first compound 3.16 µM
[18] = second compound 1 µM, first compound 10 µM
[19] = second compound 3.16 µM, first compound 0.0316 µM
[20] = second compound 3.16 µM, first compound 0.1 µM
[21] = second compound 3.16 µM, first compound 0.316 µM
[22] = second compound 3.16 µM, first compound 1 µM
[23] = second compound 3.16 µM, first compound 3.16 µM
[24] = second compound 3.16 µM, first compound 10 µM
[25] = second compound 10 µM, first compound 0.0316 µM
[26] = second compound 10 µM, first compound 0.1 µM
[27] = second compound 10 µM, first compound 0.316 µM
[28] = second compound 10 µM, first compound 1 µM
[29] = second compound 10 µM, first compound 3.16 µM
[30] = second compound 10 µM, first compound 10 µM
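Further: luminescence taken as a proxy for viable cell amount.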
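Wherever viability, T/C is given: percent of DMSO vehicle control where 100% means growth equal to vehicle.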

SMILES	IC50 (second compound 0.1 µM) [nM]	IC50 (second compound 0.316 µM) [nM]	IC50 (second compound 1 µM) [nM]	IC50 (second compound 3.16 µM) [nM]	IC50 (second compound 10 µM) [nM]	viability, T/C [1] [%]	viability, T/C [2] [%]	viability, T/C [3] [%]	viability, T/C [4] [%]	viability, T/C [5] [%]	viability, T/C [6] [%]	viability, T/C [7] [%]	viability, T/C [8] [%]	viability, T/C [9] [%]	viability, T/C [13] [%]	viability, T/C [14] [%]	viability, T/C [19] [%]	viability, T/C [20] [%]	viability, T/C [25] [%]	viability, T/C [26] [%]	further results
CC1(C)CCC(CN2CCN(c3ccc(C(=O)NS(=O)(=O)c4ccc(NCC5CCOCC5)c([N+](=O)[O-])c4)c(Oc4cnc5[nH]ccc5c4)c3)CC2)=C(c2ccc(Cl)cc2)C1 + CC(CO)NC(=O)c1cc(-c2ccc(Cl)cc2)nn(-c2cnn(C)c2)c1=O	5910	5650	5800	5480	5130	92.1	99.7	89.5	85.6	87.4	18.4	106	108	86.8	85.6	97.4	82.2	80.1	75.8	80.1	viability, T/C [10]: 82.4%; viability, T/C [11]: 86%; viability, T/C [12]: 20.5%; viability, T/C [15]: 90.3%; viability, T/C [16]: 92.7%; viability, T/C [17]: 85.4%; viability, T/C [18]: 18.2%; viability, T/C [21]: 90.1%; viability, T/C [22]: 90.2%; viability, T/C [23]: 78.7%; viability, T/C [24]: 18.3%; viability, T/C [27]: 77.2%; viability, T/C [28]: 78.2%; viability, T/C [29]: 73.2%; viability, T/C [30]: 17.9%
Cn1ncnc1C1c2n[nH]c(=O)c3cc(F)cc(c23)NC1c1ccc(F)cc1 (stereo not given) + CC(CO)NC(=O)c1cc(-c2ccc(Cl)cc2)nn(-c2cnn(C)c2)c1=O	> 100	> 100	> 100	> 100	> 100	90.2	80.9	–	–	–	–	83.1	71.5	–	75.1	74.6	71.8	70.2	76.8	66.8	viability, T/C (second compound 0.1 µM, first compound 0.000316 µM): 89.3%; viability, T/C (second compound 0.1 µM, first compound 0.001 µM): 86.6%; viability, T/C (second compound 0.1 µM, first compound 0.00316 µM): 99.1%; viability, T/C (second compound 0.1 µM, first compound 0.01 µM): 79.5%; viability, T/C (second compound 0.316 µM, first compound 0.000316 µM): 79.2%; viability, T/C (second compound 0.316 µM, first compound 0.001 µM): 95.7%; viability, T/C (second compound 0.316 µM, first compound 0.00316 µM): 83.3%; viability, T/C (second compound 0.316 µM, first compound 0.01 µM): 72.6%; viability, T/C (second compound 1 µM, first compound 0.000316 µM): 76.7%; viability, T/C (second compound 1 µM, first compound 0.001 µM): 91.2%; viability, T/C (second compound 1 µM, first compound 0.00316 µM): 88.7%; viability, T/C (second compound 1 µM, first compound 0.01 µM): 73.4%; viability, T/C (second compound 3.16 µM, first compound 0.000316 µM): 80.8%; viability, T/C (second compound 3.16 µM, first compound 0.001 µM): 83.7%; viability, T/C (second compound 3.16 µM, first compound 0.00316 µM): 80.4%; viability, T/C (second compound 3.16 µM, first compound 0.01 µM): 73.9%; viability, T/C (second compound 10 µM, first compound 0.000316 µM): 69.6%; viability, T/C (second compound 10 µM, first compound 0.001 µM): 74.3%; viability, T/C (second compound 10 µM, first compound 0.00316 µM): 79.7%; viability, T/C (second compound 10 µM, first compound 0.01 µM): 73.6%
NS(=O)(=O)OCC1CC(n2ccc3c(NC4CCc5ccccc54)ncnc32)CC1O (stereo not given) + CC(CO)NC(=O)c1cc(-c2ccc(Cl)cc2)nn(-c2cnn(C)c2)c1=O	3600	1470	882	617	638	94.1	99.9	81.9	71	51.7	38.3	96.4	88.9	78.9	89	76.7	78.4	73.5	78.5	72.6	viability, T/C [10]: 51.7%; viability, T/C [11]: 45%; viability, T/C [12]: 36.2%; viability, T/C [15]: 65.4%; viability, T/C [16]: 48.6%; viability, T/C [17]: 36.8%; viability, T/C [18]: 38.5%; viability, T/C [21]: 60.8%; viability, T/C [22]: 42.5%; viability, T/C [23]: 34.3%; viability, T/C [24]: 34.2%; viability, T/C [27]: 60.5%; viability, T/C [28]: 43.4%; viability, T/C [29]: 34.1%; viability, T/C [30]: 31.9%
